# Reference: article PMC7281419, “New Conjugates of Polyhydroxysteroids with Long-Chain Fatty Acids from the Deep-Water Far Eastern Starfish Ceramaster patagonicus and Their Anticancer Activity” (Marine Drugs, 2020)
# Read-outs that look alike come from different tables or passages of the source.
# Experiments:
# [1] = tested on: herpes simplex virus type 1 (HSV-1); set-up: method as in PMID 20523000; details: in vitro; cited from earlier work
# [2] = tested on: human liver carcinoma HepG2 cells; set-up: method as in PMID 20523000; details: in vitro; cited from earlier work
# MDA-MB-231 cells [3] = test: Wound healing (cell migration) assay; type: cell-based, human; details: 20 µM, 48 h
# Text: (§1) The metastasis process is proven to be the leading cause of cancer-related death. Metastasis is a multistep process that includes migration and invasion of cancer cells, hallmarks of malignancy. Therefore, we investigated the ability of compounds 1–4 to inhibit the migration of breast cancer MDA-MB-231 cells and colorectal carcinoma HCT 116 cells with high metastatic potential. […] Compounds 1, 3, and 4 prevented HCT 116 cell migration by 36%, 30%, and 24%, respectively (Figure 5). […]
# (§2) Figure 5 The effect of compounds 1–4 on migration of human cancer cells. MDA-MB-231 (A,B) and HCT 116 (C,D) cells migration distance was estimated by measuring the width of the wound and expressed as a percentage of each control for the mean of wound closure area. All experiments were repeated at least three times in each group (n = 18 for control and each compound, n—quantity of photos). The magnification of representative photos is ×10. Results are expressed as the mean ± standard deviation (SD). The asterisks (* p < 0.05, ** p < 0.01, *** p < 0.001) indicate a significant decrease in migration of cells treated with compounds compared with the control.
# (§3) MDA-MB-231 and HCT 116 cells (3 × 10^5 cells/mL) were seeded into six-well plates and grown to 80% confluence for 24 h. After removing the culture medium, the cells’ monolayer was scraped with a 200 µL sterile pipette tip to create a straight scratch. Then, MDA-MB-231 and HCT 116 cells were treated with equivalent volume of DMSO (control) or 1–4 at concentration of 20 µM and incubated for 48 h. All experiments were conducted in triplicate for each group. For the image analysis, cell migration into the wound area was photographed at the stages of 0 and 48 h using a Motic AE 20 microscope and ImageJ software. The cell migration distance was estimated by measuring the width of the wound and expressed as a percentage of each control for the mean wound closure area.
# HCT 116 cells [4] = test: Wound healing (cell migration) assay; type: cell-based, human; details: 20 µM, 48 h
# Text: as §1, §2, §3
# [5] = MTS cell viability assay (cytotoxic / cytostatic activity); type: cell-based, mouse; details: mouse, JB6 Cl41 cells (normal epidermal), 100 µM, 24 h incubation, read-out: suppression of cell viability
# Procedure: (§4) At the first stage of biological activity evaluation, the cytotoxicity of compounds 1–4 against mouse normal epidermal JB6 Cl41 cells, human breast cancer MDA-MB-231 cells, and colorectal carcinoma HCT 116 cells was determined by MTS assay, which is based on the cleavage of (3-(4,5-dimethylthiazol-2-yl)-5-(3-carboxymethoxyphenyl)-2-(4-sulfophenyl)-2H-tetrazolium) (MTS reagent) into a formazan product soluble in tissue culture medium.
# (§5) That is why the cytostatic activity of compounds 1–4 was determined against JB6 Cl41, MDA-MB-231, and HCT 116 cell lines for 24, 48, and 72 h. […] The cytostatic effect of 2 was more prominent in colorectal carcinoma HCT 116 cells.
# (§6) Figure 3 The cytostatic activity of compounds 1–4 against normal epidermal JB6 Cl41 cells, breast cancer MDA-MB-231 cells, and colorectal carcinoma HCT 116 cells. (A) JB6 Cl41, (B) MDA-MB-231, or (C) HCT 116 cells were treated with compounds 1–4 at concentrations of 1–100 µM for 24, 48, and 72 h. Cell viability was estimated using the MTS assay. Data are represented as the mean ± SD as determined from triplicate experiments.
# (§7) To determine the cytotoxicity of compounds 1–4, JB6 Cl41, MDA-MB-231, and HCT 116 cells (1.0 × 10^4) were seeded in 200 µL of complete MEM/5% FBS, DMEM/10% FBS, and McCoy’s 5A/10% FBS medium, respectively, and incubated for 24 h at 37 °C in 5% CO2 incubator. The attached cells were incubated with fresh medium containing various concentrations of 1–4 (0–100 µM) or equivalent volume of DMSO (control) for additional 24 h. Subsequently, the cells were incubated with 15 µL MTS reagent for 3 h, and the absorbance of each well was measured at 490/630 nm using Power Wave XS microplate reader (BioTek, Winooski, VT, USA). All experimental conditions were assessed in triplicate.
# (§8) To determine the effect of compounds 1–4 on cell proliferation, the tested cell lines (8 × 10^3 cells/200 µL) were treated with tested compounds at concentrations of 1, 10, 50, and 100 µM or equivalent volume of DMSO (control) and incubated for additional 24, 48, and 72 h at 37 °C in 5% CO2. MTS reagent (20 µL) was added to each well, and the cells were incubated for additional 3 h in 5% CO2 incubator. Absorbance was measured at 490/630 nm by microplate reader. All experimental conditions were assessed in triplicate.
# JB6 Cl41 cells = test: as above; type: cell-based, mouse; details: Mus musculus, 72 h incubation, read-out: concentration that caused 50% inhibition of growth (IC50)
# Procedure: as §4, §5, §6, §7, §8
# MDA-MB-231 cells [6] = test: Soft agar colony formation assay; type: cell-based; details: Homo sapiens, 336 h, 14 days
# Procedure: (§9) The formation of colonies is one of the most stringent characteristics for malignant transformation in cells. In the present study the soft agar assay was used to investigate the effect of compounds 1–4 on capability of cancer cells to form colonies.
# (§10) Figure 4 The effect of compounds 1–4 on colony formation in human cancer cells. MDA-MB-231 (A) or HCT 116 cells (B) (2.4 × 10^4) were treated with or without investigated compounds (20 µM) and applied onto 0.3% Basal Medium Eagle (BME) agar containing 10% FBS, 2 mM L-glutamine, and 25 µg/mL gentamicin. After 14 days of incubation, the number of colonies was evaluated under a microscope with the aid of the ImageJ software program. Results are expressed as the mean ± standard deviation (SD). The asterisks (** p < 0.01, *** p < 0.001) indicate a significant decrease in colony number of cancer cells treated by compounds compared with control.
# (§11) To estimate the effects of 1–4 on colony formation (phenotype expression), MDA-MB-231 and HCT 116 cells (2.4 × 10^4 cells/200 µL) were treated equivalent volume of DMSO (control) or with compounds 1–4 (20 µM) in 1 mL of 0.3% Basal Medium Eagle (BME) agar containing 10% FBS, 2 mM L-glutamine, and 25 µg/mL gentamicin. The cultures were maintained in a 37 °C, 5% CO2 incubator for 14 days, and the cell colonies were scored using a Motic AE 20 microscope (XiangAn, Xiamen, China) and ImageJ software bundled with 64-bit Java 1.8.0_112 (NIH, Bethesda, MD, USA).
# HCT 116 cells [7] = test: Soft agar colony formation assay; type: cell-based; details: Homo sapiens, 336 h, 14 days
# Procedure: as §9, §10, §11
# MDA-MB-231 cells [8] = test: MTS cell viability assay (cytotoxic / cytostatic activity); type: cell-based, human; details: for IC50: Homo sapiens, 72 h incubation, read-out: concentration that caused 50% inhibition of growth (IC50)
# Procedure: as §4, §5, §6, §7, §8
# [9] = as above; type: cell-based, human; details: human, 100 µM, 24 h incubation, read-out: suppression of cell viability
# Procedure: as §4, §5, §6, §7, §8
# HCT 116 cells [10] = test: as above; type: cell-based, human; details: for IC50: Homo sapiens, 72 h incubation, read-out: concentration that caused 50% inhibition of growth (IC50)
# Procedure: as §4, §5, §6, §7, §8
# human lung cancer A549 = tested on: human lung cancer A549; set-up: method as in PMID 15104487; details: cited from earlier work
# colon cancer HCT15 = tested on: colon cancer HCT15; set-up: method as in PMID 15104487; details: cited from earlier work
# melanoma SK-MEL-2 = tested on: melanoma SK-MEL-2; set-up: method as in PMID 15104487; details: SK-MEL-2 cells; cited from earlier work
# ovarian cancer SK-OV-3 = tested on: ovarian cancer SK-OV-3; set-up: method as in PMID 15104487; details: SK-OV-3 cells; cited from earlier work
# CNS cancer XF498 = tested on: CNS cancer XF498; set-up: method as in PMID 15104487; details: cited from earlier work
# [11] = HCT 116 cells (colorectal carcinoma)
# [12] = MDA-MB-231 cells (breast cancer)
compound,measurement,setting,value
"CCCCC/C=C\CCCCCCCCCCCCC(=O)OC[C@@H](C)CCC[C@@H](C)[C@H]1[C@@H](O)[C@H](O)[C@@H]2[C@]1(C)CC[C@@H]1[C@@]3(C)CC[C@H](O)C[C@@H]3[C@@H](O)[C@@H](O)[C@]12O [(25S)-5α-cholestane-3β,6α,7α,8,15α,16β-hexaol-26-yl 14′Z-eicosenoate]",inhibitory activity against HSV-1,[1],did not possess inhibitory activity
same,inhibitory activity against HepG2 cells,[2],did not possess inhibitory activity
"CCCCCCC=CCCCCC=CCCCC(=O)OCC(C)CCCC(C)C1C(O)C(O)C2C3CC(O)C4CC(O)CCC4(C)C3CCC12C [Compound 1, (25S)-5α-cholestane-3β,6β,15α,16β-tetraol-26-yl 5′Z,11′Z-octadecadienoate]",prevention of cell migration compared to control,MDA-MB-231 cells [3],42%
same,prevention of cell migration,HCT 116 cells [4],36%
same,"cytotoxicity at 24 h, 100 µM",[5],< 15%
same,IC50,JB6 Cl41 cells,81 µM
same,inhibition at 20 µM,MDA-MB-231 cells [6],17%
same,inhibition at 20 µM,HCT 116 cells [7],20%
same,IC50,MDA-MB-231 cells [8],74 µM
same,"cytotoxicity at 24 h, 100 µM",[9]; [11],< 15%
same,"cytotoxicity at 24 h, 100 µM",[9]; [12],< 15%
same,IC50,HCT 116 cells [10],73 µM
"CCCCCCC=CCCCCCCCCCC(=O)OCC(C)CCCC(C)C1C(O)C(O)C2C3CC(O)C4CC(O)CCC4(C)C3CCC12C [Compound 2, (25S)-5α-cholestane-3β,6β,15α,16β-tetraol-26-yl 11′Z-octadecenoate]",prevention of cell migration compared to control,MDA-MB-231 cells [3],50%
same,prevention of cell migration,HCT 116 cells [4],73%
same,"cytotoxicity at 24 h, 100 µM",[5],< 15%
same,IC50,JB6 Cl41 cells,40 µM
same,inhibition at 20 µM,MDA-MB-231 cells [6],26%
same,inhibition at 20 µM,HCT 116 cells [7],27%
same,IC50,MDA-MB-231 cells [8],33 µM
same,"cytotoxicity at 24 h, 100 µM",[9]; [11],< 15%
same,"cytotoxicity at 24 h, 100 µM",[9]; [12],< 15%
same,IC50,HCT 116 cells [10],31 µM
"CCCCCCCCC=CCCCCC=CCCCC(=O)OCC(C)CCCC(C)C1C(O)C(O)C2C3CC(O)C4CC(O)CCC4(C)C3CCC12C [Compound 3, (25S)-5α-cholestane-3β,6β,15α,16β-tetraol-26-yl 5′Z,11′Z-eicosadienoate]",inhibitory activity against cell migration (in words),MDA-MB-231 cells [3],moderate inhibitory activity
same,prevention of cell migration,HCT 116 cells [4],30%
same,"cytotoxicity at 24 h, 100 µM",[5],< 15%
same,IC50,JB6 Cl41 cells,79 µM
same,inhibition at 20 µM,MDA-MB-231 cells [6],15%
same,inhibition at 20 µM,HCT 116 cells [7],18%
same,IC50,MDA-MB-231 cells [8],73 µM
same,"cytotoxicity at 24 h, 100 µM",[9]; [11],< 15%
same,"cytotoxicity at 24 h, 100 µM",[9]; [12],< 15%
same,IC50,HCT 116 cells [10],71 µM
"CCCCCCCCCCCCC=CCCCCCC(=O)OCC(C)CCCC(C)C1C(O)C(O)C2C3CC(O)C4CC(O)CCC4(C)C3CCC12C [Compound 4, (25S)-5α-cholestane-3β,6β,15α,16β-tetraol-26-yl 7′Z-eicosenoate]",inhibitory activity against cell migration (in words),MDA-MB-231 cells [3],moderate inhibitory activity
same,prevention of cell migration,HCT 116 cells [4],24%
same,"cytotoxicity at 24 h, 100 µM",[5],< 15%
same,inhibition at 20 µM,MDA-MB-231 cells [6],10%
same,inhibition at 20 µM,HCT 116 cells [7],16%
same,toxicity against cell line,MDA-MB-231 cells [8]; three days of treatment,non-toxic
same,"cytotoxicity at 24 h, 100 µM",[9]; [11],< 15%
same,"cytotoxicity at 24 h, 100 µM",[9]; [12],< 15%
same,toxicity against cell line,HCT 116 cells [10]; three days of treatment,non-toxic
CC(C)[C@H](/C=C/[C@@H](C)[C@H]1C[C@@H](O)[C@H]2[C@@H]3C[C@H](O)[C@H]4C[C@@H](O)CC[C@]4(C)[C@H]3CC[C@@]21C)CO [certonardosterol D2],effective dose that inhibited viability of 50% cells (ED50),human lung cancer A549,0.15 µg/mL
same,effective dose that inhibited viability of 50% cells (ED50),colon cancer HCT15,0.01 µg/mL
same,effective dose that inhibited viability of 50% cells (ED50),melanoma SK-MEL-2,0.09 µg/mL
same,effective dose that inhibited viability of 50% cells (ED50),ovarian cancer SK-OV-3,0.08 µg/mL
same,effective dose that inhibited viability of 50% cells (ED50),CNS cancer XF498,0.07 µg/mL
